Assay [1] deals with CT26 tumor cells. The assay can be described thus: In vivo efficacy of deuterated compounds in combination with an anti-PD-1 antibody in CT26 animal model. Set-up: species or system BALB/c mice. The following applies: for tumor size as compared to placebo group and to anti-PD-1 antibody alone group / tumor size over the experimental period: 1.6 μg compound s.c. in combination with 50 μg anti-PD-1 antibody i.p., FIG. 1; for tumor size as compared to placebo group and to anti-PD-1 antibody alone group: days 6, 9 and 12, p<0.05 for both comparisons; for tumor size over the experimental period: followed to day 28. The procedure: Female BALB/c mice (5 to 6-week-old) were randomly divided into 5 groups (n=5 per group), including (1) placebo (PBS; s.c.); (2) anti-PD-1 antibody (50 μg; i.p.); (3) compound 1 and anti-PD-1 antibody; (4) compound 2 and anti-PD-1 antibody; (5) compound 3 and anti-PD-1 antibody.
To challenge mice, CT26 tumor cells (1×10^6 in 0.1 mL) were injected subcutaneously on day 0. Then, mice in each group received totally three doses of placebo, anti-PD-1 antibody or indicated combination therapy on days 6, 9 and 12. In each dose of combination therapy, 1.6 μg of TLR7/8 agonist (compound 1, 2 or 3) was given subcutaneously, and 50 μg of anti-PD-1 antibody (mAb) was given intraperitoneally. All mice were sacrificed on day 28. The tumor size was determined twice a week by multiplication of caliper measurements based on the modified ellipsoidal formula: Tumor volume=½ (length × width^2). Mice with tumor length over 2 cm were considered dead and mice without measurable or palpable tumor masses were considered tumor-free. The significance of all comparisons was calculated by using t-test, and results considered significant when p<0.05.

Assay [2] has as its system CT26 tumor cells. The assay can be described thus: In vivo efficacy of compound 1 or proto-resiquimod in combination with an anti-PD-1 antibody in CT26 animal model. Details: species or system BALB/c mice. The procedure: Female BALB/c mice (5 to 6-week-old) were randomly divided into 4 groups (n=5 per group), including (1) placebo (PBS; i.p.); (2) anti-PD-1 antibody (50 μg; i.p.); (3) compound 1 (1.6 μg; s.c.) and anti-PD-1 antibody (50 μg; i.p.); (4) proto-resiquimod (1.6 μg; s.c.) and anti-PD-1 antibody (50 μg; i.p.).
To challenge mice, CT26 tumor cells (1×10^6 in 0.1 mL) were injected subcutaneously on day 0. Then, mice in each group received totally three doses of placebo, anti-PD-1 antibody or indicated combination therapy. In placebo group, mice received PBS (s.c.) on days 7, 14 and 21. In anti-PD-1 antibody alone group, mice received 50 μg of anti-PD-1 antibody (i.p.) on days 7, 10 and 14. In each combination therapy group, mice received 1.6 μg of TLR7/8 agonist (compound 1 or proto-resiquimod) (s.c.) on days 7, 14 and 21, and 50 μg of anti-PD-1 antibody (i.p.) on days 7, 10 and 14. All mice were sacrificed on day 28. By using the same method as described in example 1, the tumor size was determined and the significance of all comparisons was calculated.

Assay [3] relates to TC-1 cells. Put plainly: In vivo efficacy of compound 1 in combination with various therapeutic antibodies in TC-1 animal model. Details: species or system C57BL/6 mice. Conditions: days 9, 12, 15, 18 and 21, p<0.05, FIG. 3. The procedure:
Female C57BL/6 mice (5 to 6-week-old) were randomly divided into 7 groups (n=5 per group), including (1) placebo (PBS, i.p.); (2) compound 1 (1.6 μg; s.c.); (3) compound 1 and anti-CD137 antibody; (4) compound 1 and anti-TIGIT antibody; (5) compound 1 and anti-OX40 antibody; (6) compound 1 and anti-LAG3 antibody; (7) compound 1 and anti-CD47 antibody.
To challenge, each mouse was subcutaneously injected with 1×10^6 TC-1 cells in a volume of 0.1 mL into the left flank at day 0. Then, mice in each group received totally five doses of placebo, compound 1 or indicated combination therapy on days 9, 12, 15, 18 and 21. In each dose of combination therapy, 1.6 μg of compound 1 was given subcutaneously, and 200 μg of therapeutic antibody (anti-CD137, anti-TIGIT, anti-OX40, anti-LAG3 or anti-CD47 antibody) was given intraperitoneally. All mice were sacrificed on day 34. By using the same method as described in example 1, the tumor size was determined and the significance of all comparisons was calculated.

Regarding `[2H]C([2H])([2H])C([2H])([2H])OCc1nc2c(N)nc3ccccc3c2n1CC(C)(C)O` [Compound 1], the “tumor size as compared to placebo group and to anti-PD-1 antibody alone group” value in assay [1] is “significantly reduce tumor size”. The “tumor size over the experimental period” value in assay [1] is “almost completely suppressed tumor size”. Moreover, the “tumor inhibitory effect compared with the other deuterated compounds” value in assay [1] (in combination with anti-PD-1 antibody, p<0.05 for each comparison) is “outstanding and significant tumor inhibitory effect than compounds 2 or 3”. Moreover, the tumor size entry in assay [2] (1.6 μg TLR7/8 agonist s.c. days 7, 14 and 21 in combination with 50 μg anti-PD-1 antibody i.p. days 7, 10 and 14, FIG. 2) is “potently inhibit tumor size”. Also, the “tumor inhibitory effect compared with proto-resiquimod” value in assay [2] (in combination with anti-PD-1 antibody, p<0.05) is “more significant tumor inhibitory effect than proto-resiquimod”. For the same molecule, the “tumor size as compared to placebo group or compound 1 alone group” value in assay [3] (1.6 μg compound 1 s.c. in combination with 200 μg anti-CD47 antibody i.p.), in assay [3] (1.6 μg compound 1 s.c. in combination with 200 μg anti-CD137 antibody i.p.), in assay [3] (1.6 μg compound 1 s.c. in combination with 200 μg anti-LAG3 antibody i.p.), in assay [3] (1.6 μg compound 1 s.c. in combination with 200 μg anti-OX40 antibody i.p.) and in assay [3] (1.6 μg compound 1 s.c. in combination with 200 μg anti-TIGIT antibody i.p.) was “significantly suppress tumor size” each time.

As to `[2H]C([2H])([2H])C(O)(C([2H])([2H])[2H])C([2H])([2H])n1c(COCC)nc2c(N)nc3ccccc3c21` [Compound 2], in assay [1], the “tumor size as compared to placebo group and to anti-PD-1 antibody alone group” value is “significantly reduce tumor size”; the “tumor size over the experimental period” value is given as “initially well controlled, however, slightly grew at the last week”.

Consider `[2H]C([2H])([2H])C(O)(Cn1c(COCC)nc2c(N)nc3ccccc3c21)C([2H])([2H])[2H]` [Compound 3], for which, in assay [1], the “tumor size as compared to placebo group and to anti-PD-1 antibody alone group” value was “significantly reduce tumor size”; the “tumor size over the experimental period” value is listed as “initially well controlled, however, slightly grew at the last week”.

For the origin of these results see patent US20240382469A1, “COMBINATION THERAPY WITH DEUTERATED IMIDAZOQUINOLINES” (BIRDIE BIOPHARMACEUTICALS, INC., priority 2021, published 2024).
